Source: patent US10947196B2, “Beta adrenergic agonist and methods of using the same” (CURASEN THERAPEUTICS, INC., priority 2019, dated 2021)
Like-named read-outs stand apart in the source and are kept apart here.

Legend:
[1] = Plasma protein binding, equilibrium dialysis (human); format: in vitro ADME; conditions: pH 7.4, equilibrium dialysis 6 hours, read-out: PPB (human), percent of unbound fraction
[2] = Dog pharmacokinetic studies; format: in vivo, male Beagle dogs; conditions: for AUC(0-inf) / Cmax / MRT / Tmax: male, Beagle
Description: (§1) The rat pharmacokinetics studies of exemplary compounds 03-3, 03-5, and 03-115 were conducted with male SD rats. These rats were typically about 6-8 weeks old, weighing 200 g to 300 g. Animals were fasted overnight and free access to food 4 hours after dosing. A required volume of vehicle was added to reach the target concentration of the test article and vehicle component to prepare for the dosing. The dosing vehicle was PEG400 or 30% PEG400 in saline for IV, or 0.5% methylcellulose in water for PO. For IV dosing, the animals were administered intravenously via tail vein. For PO dosing, the animals were administered via oral gavage. After dosing, blood sample was collected (˜0.2 mL per time point) through jugular vein or heart puncture. Blood of each sample was transferred into plastic micro centrifuge tubes containing EDTA-K2. Collection tubes with blood samples and anticoagulant were inverted several times for proper mixing of the tube contents and then placed on wet ice. The blood samples were centrifuged at 2000 g for 5 minutes at 4° C. to obtain plasma which was stored in a freezer at −75±15° C. prior to analysis. Samples were analyzed using LC-MS/MS. WinNonlin were used for pharmacokinetic calculations.
(§2) Dog pharmacokinetics studies of exemplary compounds 03-3, 03-5, and 03-115 were conducted substantially similarly to the rat pharmacokinetic studies, instead using male Beagle dogs. Animals for PO studies were food fasted overnight prior to dosing and were fed approximately 2 hours after dosing. Animals for IV studies had free access to food and water. Blood samples were collected through venipuncture of peripheral veins except the dosing vein.

[3] = Plasma protein binding, equilibrium dialysis (rat); format: in vitro ADME; conditions: pH 7.4, equilibrium dialysis 6 hours, read-out: PPB (rat), percent of unbound fraction
Description: Preparation of 100 mM sodium phosphate and 150 mM NaCl buffer (PBS). A basic solution was prepared by dissolving 14.2 g/L Na2HPO4 and 8.77 g/L NaCl in deionized water and the solution could be stored at 4° C. for up to 7 days. An acidic solution was prepared by dissolving 12.0 g/L NaH2PO4 and 8.77 g/L NaCl in deionized water and the solution could be stored at 4° C. for up to 7 days. The basic solution was titrated with the acidic solution to pH 7.4 and store at 4° C. for up to 7 days. pH was checked on the day of experiment and was adjusted if outside specification of 7.4±0.1.
Thawing of the frozen plasma (stored at −80° C.). Frozen plasma was thawed immediately at room temperature. The plasma was centrifuged at 3,220 g for 10 minutes to remove clots and supernatant was collected into a fresh tube. The pH of the plasma was checked and recorded. Note: a). Only use plasma that has been thawed no more than twice since arrival. b). Only use plasma within the range of pH 7 to pH 8.
Preparation of working solutions. The working solutions of test compound and control compound ketoconazole were prepared in DMSO at the concentration of 200 μM. And then 3 μL of working solutions was removed to mix with 597 μL of rat plasma to achieve a final concentration of 1 μM (0.5% DMSO). Plasma samples were vortexed thoroughly.
Preparation of dialysis membranes. The dialysis membranes were soaked in ultrapure water for 60 minutes to separate strips, then in 20% ethanol for 20 minutes, finally in dialysis buffer for 20 minutes.
Procedure for equilibrium dialysis. The dialysis apparatus was assembled according to the manufacturer's instruction. Each Cell was filled with 120 μL of spiked plasma sample and dialyzed against equal volume of dialysis buffer (PBS). The assay was performed in duplicate. The dialysis plate was sealed and incubated in an incubator at 37° C. with 5% CO2 at 100 rpm for 6 hours. At the end of incubation, seal was removed and 50 μL of samples from both buffer and plasma chambers were transferred to wells of a 96-well plate.
Procedure for sample preparation. […]

[4] = Rat pharmacokinetic studies; format: in vivo, male SD rats; set-up: AUClast/D: unit not given here; conditions: for AUC(0-inf) / AUC(0-t) / C0 / half-life / MRT inf / Vd / Cmax / Tmax: male, SD; for MRT inf: read-out: MRTInf—obs; for Vd: read-out: Vss—obs
Description: as §1

[5] = Monkey pharmacokinetic studies; format: in vivo, male Non-Naïve Cynomolgus Monkeys; set-up: AUClast/D: unit not given here; conditions: PO 0.3 mg/kg; for AUC(0-inf) / AUC(0-t) / Cmax / Tmax / half-life / MRT inf: male, cynomolgus monkey; for MRT inf: read-out: MRTInf—obs
Description: as §1
as §2, with “Monkey” for “Dog”, “Non-Naïve Cynomolgus Monkeys.” for “Beagle dogs.”

[6] = Rat CNS exposure measurement (plasma, CSF, brain); format: in vivo, male SD rats; conditions: male, SD

Compound `CC(C)(C)NC[C@H](O)c1cccc(C#N)n1` [Compound 03-5, (S)-6-(2-(tert-butylamino)-1-hydroxyethyl)picolinonitrile] has a fraction unbound at 6 h, 1 μM [1] of 1, an F ([2]; PO 0.3 mg/kg) of 72% and an F ([2]; PO 1 mg/kg) of 70%. For the same compound, the AUC(0-inf) ([2]; plasma, PO 0.3 mg/kg) was 55.4 ng·h/mL, the Cmax ([2]; plasma, PO 0.3 mg/kg) was 43.2 ng/mL and the MRT ([2]; plasma, PO 0.3 mg/kg) was 1.22 h. It also gave a Tmax ([2]; plasma, PO 0.3 mg/kg) of 0.42 h, an AUC(0-inf) ([2]; plasma, PO 1 mg/kg) of 273 ng·h/mL and a Cmax ([2]; plasma, PO 1 mg/kg) of 164 ng/mL. For the same compound, the MRT ([2]; plasma, PO 1 mg/kg) was 1.37 h, the Tmax ([2]; plasma, PO 1 mg/kg) was 0.33 h and the fraction unbound at 6 h, 1 μM [3] was 1. For the same compound, the AUClast/D ([4]; IV 1 mg/kg) was 461, the “AUC—% Extrap—obs” value ([4]; IV 1 mg/kg) was 0.457% and the Cl_obs ([4]; IV 1 mg/kg) was 37.3 mL/min/kg. The AUClast/D ([4]; PO 5 mg/kg) was 450, the “AUC—% Extrap—obs” value ([4]; PO 5 mg/kg) was 4.10% and the F ([4]; PO 5 mg/kg) was 101%. For the same compound, the AUC(0-inf) ([4]; plasma, IV 1 mg/kg) was 463 ng·h/mL, the AUC(0-t) ([4]; plasma, IV 1 mg/kg) was 461 ng·h/mL and the C0 ([4]; plasma, IV 1 mg/kg) was 468 ng/mL. The half-life ([4]; plasma, IV 1 mg/kg) was 0.644 h, the MRT inf ([4]; plasma, IV 1 mg/kg) was 0.873 h and the Vd ([4]; plasma, IV 1 mg/kg) was 1.89 L/kg. The AUC(0-inf) ([4]; plasma, PO 5 mg/kg) was 2340 ng·h/mL, the AUC(0-t) ([4]; plasma, PO 5 mg/kg) was 2250 ng·h/mL and the Cmax ([4]; plasma, PO 5 mg/kg) was 717 ng/mL. It also gave a Tmax ([4]; plasma, PO 5 mg/kg) of 0.75 h, a half-life ([4]; plasma, PO 5 mg/kg) of 1.61 h and an MRT inf ([4]; plasma, PO 5 mg/kg) of 2.62 h. For the same compound, the AUClast/D [5] was 1144, the “AUC—% Extrap—obs” value [5] was 2.13% and the F [5] was 88.3%. For the same compound, the AUC(0-inf) ([5]; plasma) was 351 ng·h/mL, the AUC(0-t) ([5]; plasma) was 343 ng·h/mL and the Cmax ([5]; plasma) was 66.2 ng/mL. The Tmax ([5]; plasma) was 1 h, the half-life ([5]; plasma) was 4.53 h and the MRT inf ([5]; plasma) was 5.11 h. The concentration at 1 h ([6]; CSF, IV 1 mg/kg, read-out: Concentration, CSF) was 113 ng/mL, the concentration at 1 h ([6]; CSF, PO 5 mg/kg, read-out: Concentration, CSF) was 242 ng/mL and the concentration at 1 h ([6]; brain, IV 1 mg/kg, read-out: Concentration, Brain) was 267 ng/g. For the same compound, the concentration at 1 h ([6]; brain, PO 5 mg/kg, read-out: Concentration, Brain) was 497 ng/g, the concentration at 1 h ([6]; plasma, IV 1 mg/kg, read-out: Concentration, Plasma) was 184 ng/mL and the concentration at 1 h ([6]; plasma, PO 5 mg/kg, read-out: Concentration, Plasma) was 642 ng/mL.
In the case of `CC(C)(C)NC[C@H](O)c1cccc(C(F)(F)F)n1` [Compound 03-3], the fraction unbound at 6 h, 1 μM [1] is reported as 0.89, the F ([2]; PO 1 mg/kg) is reported as 111% and the F ([2]; PO 2.5 mg/kg) is reported as 194%. It also gave an AUC(0-inf) ([2]; plasma, PO 1 mg/kg) of 584 ng·h/mL, a Cmax ([2]; plasma, PO 1 mg/kg) of 227 ng/mL and an MRT ([2]; plasma, PO 1 mg/kg) of 1.93 h. It also gave a Tmax ([2]; plasma, PO 1 mg/kg) of 0.5 h, an AUC(0-inf) ([2]; plasma, PO 2.5 mg/kg) of 1590 ng·h/mL and a Cmax ([2]; plasma, PO 2.5 mg/kg) of 413 ng/mL. For the same compound, the MRT ([2]; plasma, PO 2.5 mg/kg) was 3.19 h, the Tmax ([2]; plasma, PO 2.5 mg/kg) was 0.5 h and the fraction unbound at 6 h, 1 μM [3] was 0.9. The AUClast/D ([4]; IV 1 mg/kg) was 546, the “AUC—% Extrap—obs” value ([4]; IV 1 mg/kg) was 1.14% and the Cl_obs ([4]; IV 1 mg/kg) was 30.2 mL/min/kg. For the same compound, the AUClast/D ([4]; PO 5 mg/kg) was 845, the “AUC—% Extrap—obs” value ([4]; PO 5 mg/kg) was 0.0970% and the F ([4]; PO 5 mg/kg) was 153%. The AUC(0-t) ([4]; in vivo, IV 1 mg/kg) was 546 ng·h/mL, the AUC(0-inf) ([4]; plasma, IV 1 mg/kg) was 552 ng·h/mL and the C0 ([4]; plasma, IV 1 mg/kg) was 388 ng/mL. It also gave a half-life ([4]; plasma, IV 1 mg/kg) of 1.28 h, an MRT inf ([4]; plasma, IV 1 mg/kg) of 1.61 h and a Vd ([4]; plasma, IV 1 mg/kg) of 2.92 L/kg. It also gave an AUC(0-inf) ([4]; plasma, PO 5 mg/kg) of 4230 ng·h/mL, an AUC(0-t) ([4]; plasma, PO 5 mg/kg) of 4220 ng·h/mL and a Cmax ([4]; plasma, PO 5 mg/kg) of 818 ng/mL. For the same compound, the Tmax ([4]; plasma, PO 5 mg/kg) was 1.17 h, the half-life ([4]; plasma, PO 5 mg/kg) was 2.44 h and the MRT inf ([4]; plasma, PO 5 mg/kg) was 3.93 h. For the same compound, the AUClast/D [5] was 761, the “AUC—% Extrap—obs” value [5] was 1.87% and the F [5] was 44.6%. For the same compound, the AUC(0-inf) ([5]; plasma) was 232 ng·h/mL, the AUC(0-t) ([5]; plasma) was 228 ng·h/mL and the Cmax ([5]; plasma) was 46.6 ng/mL. It also gave a Tmax ([5]; plasma) of 1 h, a half-life ([5]; plasma) of 4.32 h and an MRT inf ([5]; plasma) of 4.99 h. It also gave a concentration at 1 h ([6]; CSF, iv, 1 mg/kg, IV 1 mg/kg, read-out: Concentration, CSF) of 142 ng/mL, a concentration at 1 h ([6]; brain, iv, 1 mg/kg, IV 1 mg/kg, read-out: Concentration, Brain) of 680 ng/g and a concentration at 1 h ([6]; plasma, iv, 1 mg/kg, IV 1 mg/kg, read-out: Concentration, Plasma) of 199 ng/mL.
For `Cc1ncccc1[C@@H](O)CNC(C)(C)C` [Compound 03-115], the fraction unbound at 6 h, 1 μM [1] was 1, the F ([2]; PO 0.5 mg/kg) was 53% and the F ([2]; PO 1.5 mg/kg) was 71%. The AUC(0-inf) ([2]; in vivo, PO 0.5 mg/kg) was 132 ng·h/mL, the Cmax ([2]; in vivo, PO 0.5 mg/kg) was 72.3 ng/mL and the MRT ([2]; in vivo, PO 0.5 mg/kg) was 1.82 h. It also gave a Tmax ([2]; in vivo, PO 0.5 mg/kg) of 0.5 h, an AUC(0-inf) ([2]; in vivo, PO 1.5 mg/kg) of 537 ng·h/mL and a Cmax ([2]; in vivo, PO 1.5 mg/kg) of 387 ng/mL. It also gave an MRT ([2]; in vivo, PO 1.5 mg/kg) of 1.69 h, a Tmax ([2]; in vivo, PO 1.5 mg/kg) of 0.33 h and a fraction unbound at 6 h, 1 μM [3] of 0.97. The Cl_obs ([4]; IV 1 mg/kg) was 103 mL/min/kg, the F ([4]; PO 5 mg/kg) was 23% and the AUC(0-inf) ([4]; in vivo, IV 1 mg/kg) was 164 ng·h/mL. The C0 ([4]; in vivo, IV 1 mg/kg) was 512 ng/mL, the half-life ([4]; in vivo, IV 1 mg/kg) was 0.36 h and the Vd ([4]; in vivo, IV 1 mg/kg) was 2.4 L/kg. The AUC(0-inf) ([4]; in vivo, PO 5 mg/kg) was 192 ng·h/mL, the Cmax ([4]; in vivo, PO 5 mg/kg) was 174 ng/mL and the Tmax ([4]; in vivo, PO 5 mg/kg) was 0.25 h. For the same compound, the half-life ([4]; in vivo, PO 5 mg/kg) was 1.61 h, the MRT inf ([4]; in vivo, PO 5 mg/kg) was 1.06 h and the F [5] was 71%. The AUC(0-inf) ([5]; in vivo) was 261 ng·h/mL, the Cmax ([5]; in vivo) was 67 ng/mL and the Tmax ([5]; in vivo) was 1.17 h. It also gave an MRT inf ([5]; in vivo) of 3.46 h, a concentration at 1 h ([6]; in vivo, SC 1 mg/kg, read-out: Concentration, Plasma) of 149 ng/mL and a concentration at 1 h ([6]; in vivo, sc, 1 mg/kg, SC 1 mg/kg, read-out: Concentration, Brain) of 142 ng/g. It also gave a concentration at 1 h ([6]; in vivo, sc, 1 mg/kg, SC 1 mg/kg, read-out: Concentration, CSF) of 56.2 ng/mL.
